According to patent US10441608B2, “Continuous methods for treating liquids and manufacturing certain constituents (e.g., nanoparticles) in liquids, apparatuses and nanoparticles and nanoparticle/liquid solution(s) resulting therefrom” (Clene Nanomedicine, Inc., priority 2009, dated 2019):
Values after ≈ are worked out from the molar mass of the structure shown. Values joined by “and” are separate entries in the source; they are usually repeats but may differ in a detail not shown here. Equal entries are not always repeated. Where two headings read alike, the source gives them in different places.

Legend:
[1] = test system: Staphylococcus aureus ATCC-29213; assay: Broth microdilution MIC/MID 50 against Staphylococcus aureus; type: cell-based
Excerpt: The clinical and laboratory standards institute Broth Microdilution Methodology was employed, however, the growth medium used was an “RPMI” medium. Additionally, the methods for dilution and antimicrobial susceptibility tests for bacteria that grow aerobically were also followed with the noted exception of testing with alternative media (CLSI document […], CLSI, Wayne, Pa.). […] Under the column, “Isolate” identification beginning with either “GP” or “GN” occur. The “GP” corresponds to Gram-Positive bacteria and the “GN” corresponds to “Gram Negative” bacteria. Each of the organisms are specifically listed after the isolate identification.

[2] = test system: Gram-Positive and Gram Negative bacteria; type: cell-based

## C[C@H]1COc2c(N3CCN(C)CC3)c(F)cc3c(=O)c(C(=O)O)cn1c23 [Levofloxacin]
[1]; GP01 Staphylococcus aureus ATCC 29213, antibiotic-susceptible control strain
  MID/MIC (amount of antibiotic): 0.12 mg/L
[1]; Staphylococcus aureus ATCC 29213 - antibiotic-susceptible control strain
  MIC/MID 50: 0.12 µg/mL (≈ 0.332 µM)
[2]; Citrobacter freundii - antibiotic-susceptible clinical isolate
  MIC/MID 50: 0.02 µg/mL (≈ 0.0553 µM)
[2]; Citrobacter freundii - resistant clinical isolate
  MIC/MID 50: 8.00 µg/mL (≈ 22.1 µM)
[2]; Enterobacter sp - antibiotic-susceptible clinical isolate
  MIC/MID 50: 0.12 µg/mL (≈ 0.332 µM)
[2]; Enterobacter sp - multi-drug resistant clinical isolate
  MIC/MID 50: 0.06 µg/mL (≈ 0.166 µM)
[2]; Enterococcus faecalis - ATCC 29212 antibiotic-susceptible control strain
  MIC/MID 50: 2.00 µg/mL (≈ 5.53 µM)
[2]; Enterococcus faecalis vancomycin-susceptible clinical isolate
  MIC/MID 50: 4.00 µg/mL (≈ 11.1 µM)
[2]; Enterococcus faecium vancomycin-resistant (VanB) clinical isolate
  MIC/MID 50: 4.00 µg/mL (≈ 11.1 µM)
[2]; Enterococcus gallinarum vancomycin-resistant (VanC) clinical isolate
  MIC/MID 50: 2.00 µg/mL (≈ 5.53 µM)
[2]; Escherichia coli ATCC25922 - antibiotic-susceptible type strain
  MIC/MID 50: 0.02 µg/mL (≈ 0.0553 µM)
[2]; GN01 Escherichia coli ATCC25922, antibiotic-susceptible type strain
  MID/MIC (amount of antibiotic): 0.015 mg/L
[2]; GN02 Escherichia coli ATCC35218, β-lactamase positive type strain
  MID/MIC (amount of antibiotic): 0.015 mg/L
[2]; GN06 Enterobacter sp, antibiotic-susceptible clinical isolate
  MID/MIC (amount of antibiotic): 0.06 mg/L and 0.12 mg/L
[2]; GN10 Pseudomonas aeruginosa ATCC27853, antibiotic-susceptible type strain
  MID/MIC (amount of antibiotic): 2 mg/L
[2]; GN11 Pseudomonas aeruginosa, multi-drug resistant clinical isolate
  MID/MIC (amount of antibiotic): 2 mg/L
[2]; GN12 Stenotrophomonas maltophilia, antibiotic-susceptible clinical isolate
  MID/MIC (amount of antibiotic): 0.25 mg/L
[2]; GN13 Stenotrophomonas maltophila, antibiotic-resistant clinical isolate
  MID/MIC (amount of antibiotic): 1 mg/L
[2]; GN14 Burkholderia cepacia, antibiotic-susceptible clinical isolate
  MID/MIC (amount of antibiotic): 4 mg/L
[2]; GN15 Proteus mirabilis, antibiotic-susceptible clinical isolate
  MID/MIC (amount of antibiotic): 0.06 mg/L
[2]; GN16 Proteus mirabilis, multi-drug resistant clinical isolate
  MID/MIC (amount of antibiotic): 2 mg/L
[2]; GN17 Salmonella sp, antibiotic-susceptible clinical isolate
  MID/MIC (amount of antibiotic): 0.03 mg/L
[2]; GN18 Salmonella sp, multi-drug resistant clinical isolate
  MID/MIC (amount of antibiotic): 0.06 mg/L
[2]; GN19 Shigella sp, antibiotic-susceptible clinical isolate
  MID/MIC (amount of antibiotic): 0.03 mg/L
[2]; GN20 Shigella sp, multi-drug resistant clinical isolate
  MID/MIC (amount of antibiotic): 0.03 mg/L
[2]; GN22 Morganella morganii, multi-drug resistant clinical isolate
  MID/MIC (amount of antibiotic): 1 mg/L
[2]; GN23 Providencia stuartii, antibiotic-susceptible clinical isolate
  MID/MIC (amount of antibiotic): 0.06 mg/L
[2]; GN24 Providencia stuartii, multi-drug resistant clinical isolate
  MID/MIC (amount of antibiotic): 8 mg/L
[2]; GN28 Haemophilus influenzae, β-lactamase negative ampicillin-resistant clinical isolate
  MID/MIC (amount of antibiotic): 0.06 mg/L
[2]; GN29 Moraxella catarrhalis, β-lactamase positive clinical isolate
  MID/MIC (amount of antibiotic): 0.06 mg/L
[2]; GN32 Acinetobacter baumanii, multi-drug resistant clinical isolate
  MID/MIC (amount of antibiotic): 8 mg/L
[2]; GN33 Bacteroides fragilis, antibiotic-susceptible clinical isolate, supplemented with 2% serum and 1 μg/mL Vit K
  MID/MIC (amount of antibiotic): 0.015 mg/L
[2]; GP02 Staphylococcus aureus ATCC 25923, antibiotic-susceptible control strain
  MID/MIC (amount of antibiotic): 0.12 mg/L
[2]; GP04 Staphylococcus aureus, methicillin-resistant clinical isolate
  MID/MIC (amount of antibiotic): 0.12 mg/L
[2]; GP05 Staphylococcus aureus, multi-drug-resistant clinical isolate
  MID/MIC (amount of antibiotic): 4 mg/L
[2]; GP06 Staphylococcus aureus, teicoplanin-intermediate clinical isolate
  MID/MIC (amount of antibiotic): 4 mg/L
[2]; GP07 Staphylococcus epidermidis, antibiotic susceptible clinical isolate
  MID/MIC (amount of antibiotic): 0.12 mg/L
[2]; GP08 Staphylococcus epidermidis, methicillin-resistant clinical isolate
  MID/MIC (amount of antibiotic): 0.25 mg/L
[2]; GP09 Staphylococcus haemolyticus, antibiotic susceptible clinical isolate
  MID/MIC (amount of antibiotic): 0.5 mg/L
[2]; GP10 Staphylococcus saprophyticus, antibiotic susceptible clinical isolate
  MID/MIC (amount of antibiotic): 0.5 mg/L
[2]; GP11 Enterococcus faecalis ATCC 29212, antibiotic-susceptible control strain
  MID/MIC (amount of antibiotic): 2 mg/L
[2]; GP12 Enterococcus faecalis, vancomycin-susceptible clinical isolate
  MID/MIC (amount of antibiotic): 4 mg/L
[2]; GP15 Enterococcus faecalis, high-level gentamicin-resistant clinical isolate
  MID/MIC (amount of antibiotic): >8 mg/L
[2]; GP16 Enterococcus faecium, vancomycin-susceptible clinical isolate
  MID/MIC (amount of antibiotic): >8 mg/L
[2]; GP17 Enterococcus faecium, vancomycin-resistant (VanA) clinical isolate
  MID/MIC (amount of antibiotic): 4 mg/L
[2]; GP18 Enterococcus faecium, vancomycin-resistant (VanB) clinical isolate
  MID/MIC (amount of antibiotic): 2 mg/L
[2]; GP19 Enterococcus gallinarum, vancomycin-resistant (VanC) clinical isolate
  MID/MIC (amount of antibiotic): 1 mg/L
[2]; GP20 Streptococcus pneumoniae ATCC 49619, antibiotic-susceptible control strain
  MID/MIC (amount of antibiotic): 1 mg/L
[2]; GP21 Streptococcus pneumoniae, pencillin-susceptible clinical isolate
  MID/MIC (amount of antibiotic): 0.5 mg/L
[2]; GP22 Streptococcus pneumoniae, penicillin-intermediate clinical isolate
  MID/MIC (amount of antibiotic): 0.5 mg/L
[2]; GP23 Streptococcus pneumoniae, penicillin-resistant clinical isolate
  MID/MIC (amount of antibiotic): 0.5 mg/L and 1 mg/L
[2]; GP25 Streptococcus pyogenes, antibiotic-susceptible clinical isolate
  MID/MIC (amount of antibiotic): 0.5 mg/L
[2]; GP29 Corynebacterium jeikeium, multi-drug resistant clinical isolate
  MID/MIC (amount of antibiotic): 0.5 mg/L
[2]; GP30 Listeria monocytogenes, antibiotic-susceptible clinical isolate
  MID/MIC (amount of antibiotic): 8 mg/L
[2]; GP31 MU50 Staphylococcus aureus (MRSA), VISA type strain
  MID/MIC (amount of antibiotic): 0.06 mg/L
[2]; GP33 EMRSA16 Staphylococcus aureus (MRSA), SSCmec type 2
  MID/MIC (amount of antibiotic): >8 mg/L
[2]; GP34 EMRSA1 Staphylococcus aureus (MRSA), SSCmec type 3
  MID/MIC (amount of antibiotic): 0.12 mg/L
[2]; GP35 EMRSA15 Staphylococcus aureus (MRSA), SSCmec type 4
  MID/MIC (amount of antibiotic): 0.06 mg/L
[2]; GP36 HT2001254 Staphylococcus aureus (MRSA), PVL positive
  MID/MIC (amount of antibiotic): 0.12 mg/L
[2]; GP37 Streptococcus agalactiae, antibiotic-susceptible clinical isolate
  MID/MIC (amount of antibiotic): 1 mg/L
[2]; GP38 Streptococcus agalactiae, macrolide-resistant clinical isolate
  MID/MIC (amount of antibiotic): 1 mg/L
[2]; GP39 Group C Streptococcus, antibiotic-susceptible clinical isolate
  MID/MIC (amount of antibiotic): 0.5 mg/L
[2]; GP41 Group G Streptococcus, antibiotic-susceptible clinical isolate
  MID/MIC (amount of antibiotic): 0.25 mg/L
[2]; GP42 Group G Streptococcus, macrolide-resistant clinical isolate
  MID/MIC (amount of antibiotic): 0.25 mg/L
[2]; GP43 Streptococcus mitis, antibiotic-susceptible clinical isolate
  MID/MIC (amount of antibiotic): 1 mg/L
[2]; GP46 Streptococcus constellatus, macrolide-resistant clinical isolate
  MID/MIC (amount of antibiotic): 1 mg/L
[2]; GP47 Streptococcus oralis, antibiotic-susceptible clinical isolate
  MID/MIC (amount of antibiotic): 1 mg/L
[2]; GP48 Streptococcus oralis, macrolide-resistant clinical isolate
  MID/MIC (amount of antibiotic): 1 mg/L
[2]; GP49 Streptococcus bovis, antibiotic-susceptible clinical isolate
  MID/MIC (amount of antibiotic): 1 mg/L
[2]; GP50 Streptococcus bovis, macrolide-resistant clinical isolate
  MID/MIC (amount of antibiotic): 0.5 mg/L and 1 mg/L
[2]; GP51 Streptococcus sanguis, antibiotic-susceptible clinical isolate
  MID/MIC (amount of antibiotic): 1 mg/L and 0.5 mg/L
[2]; GP52 Streptococcus sanguis, macrolide-resistant clinical isolate
  MID/MIC (amount of antibiotic): 1 mg/L
[2]; GP53 Clostridium perfringens, antibiotic-susceptible clinical isolate, supplemented with 2% serum and 1 μg/mL Vit K
  MID/MIC (amount of antibiotic): 0.015 mg/L
[2]; GP55 Group C Streptococcus, antibiotic-resistant clinical isolate
  MID/MIC (amount of antibiotic): 0.5 mg/L
[2]; Listeria monocytogenes - antibiotic-susceptible clinical isolate
  MIC/MID 50: 0.50 µg/mL (≈ 1.38 µM)
[2]; Moraxella catarrhalis β-lactamase positive clinical isolate (first of two lines so named)
  MIC/MID 50: 0.06 µg/mL (≈ 0.166 µM)
[2]; Moraxella catarrhalis β-lactamase positive clinical isolate (second of two lines so named)
  MIC/MID 50: 0.06 µg/mL (≈ 0.166 µM)
[2]; Morganella morganii - multi-drug resistant clinical isolate
  MIC/MID 50: 1.00 µg/mL (≈ 2.77 µM)
[2]; P8119035 Citrobacter freundii, resistant clinical isolate
  MID/MIC (amount of antibiotic): 8 mg/L
[2]; Proteus mirabilis - antibiotic-susceptible clinical isolate
  MIC/MID 50: 0.06 µg/mL (≈ 0.166 µM)
[2]; Proteus mirabilis - multi-drug resistant clinical isolate
  MIC/MID 50: 2.00 µg/mL (≈ 5.53 µM)
[2]; Staphylococcus aureus - multi-drug-resistant clinical isolate
  MIC/MID 50: 4.00 µg/mL (≈ 11.1 µM)
[2]; Staphylococcus aureus - teicoplanin-intermediate clinical isolate
  MIC/MID 50: 4.00 µg/mL (≈ 11.1 µM)
[2]; Staphylococcus aureus ATCC 25923 - antibiotic-susceptible control strain
  MIC/MID 50: 0.12 µg/mL (≈ 0.332 µM)
[2]; Staphylococcus aureus ATCC 43300 - methicillin-resistant control strain
  MIC/MID 50: 0.25 µg/mL (≈ 0.692 µM)
[2]; Staphylococcus epidermidis antibiotic susceptible clinical isolate
  MIC/MID 50: 0.12 µg/mL (≈ 0.332 µM)
[2]; Staphylococcus epidermidis methicillin-resistant clinical isolate
  MIC/MID 50: 0.25 µg/mL (≈ 0.692 µM)
[2]; Staphylococcus haemolyticus - antibiotic susceptible clinical isolate
  MIC/MID 50: 0.50 µg/mL (≈ 1.38 µM)
[2]; Staphylococcus saprophyticus - antibiotic susceptible clinical isolate
  MIC/MID 50: 0.50 µg/mL (≈ 1.38 µM)
[2]; Stenotrophomonas maltophila - antibiotic-resistant clinical isolate
  MIC/MID 50: 1.00 µg/mL (≈ 2.77 µM)
[2]; Stenotrophomonas maltophilia - antibiotic-susceptible clinical isolate
  MIC/MID 50: 0.25 µg/mL (≈ 0.692 µM)
[2]; Streptococcus agalactiae - antibiotic-susceptible clinical isolate
  MIC/MID 50: 1.00 µg/mL (≈ 2.77 µM)
[2]; Streptococcus agalactiae - macrolide-resistant clinical isolate
  MIC/MID 50: 1.00 µg/mL (≈ 2.77 µM)
[2]; Streptococcus bovis - antibiotic-susceptible clinical isolate
  MIC/MID 50: 1.00 µg/mL (≈ 2.77 µM)
[2]; Streptococcus bovis - macrolide-resistant clinical isolate
  MIC/MID 50: 1.00 µg/mL (≈ 2.77 µM)
[2]; Streptococcus mitis - macrolide-resistant clinical isolate
  MIC/MID 50: 1.00 µg/mL (≈ 2.77 µM)
[2]; Streptococcus oralis - antibiotic-susceptible clinical isolate
  MIC/MID 50: 1.00 µg/mL (≈ 2.77 µM)
[2]; Streptococcus oralis - macrolide-resistant clinical isolate
  MIC/MID 50: 1.00 µg/mL (≈ 2.77 µM)
[2]; Streptococcus pneumoniae - ATCC 49619 antibiotic-susceptible control strain
  MIC/MID 50: 1.00 µg/mL (≈ 2.77 µM)
[2]; Streptococcus pneumoniae - multi-drug resistant clinical isolate
  MIC/MID 50: 1.00 µg/mL (≈ 2.77 µM)
[2]; Streptococcus pneumoniae - pencillin-susceptible clinical isolate
  MIC/MID 50: 1.00 µg/mL (≈ 2.77 µM)
[2]; Streptococcus pneumoniae - penicillin-intermediate clinical isolate
  MIC/MID 50: 0.50 µg/mL (≈ 1.38 µM)
[2]; Streptococcus pneumoniae - penicillin-resistant clinical isolate
  MIC/MID 50: 0.50 µg/mL (≈ 1.38 µM)
[2]; Streptococcus pyogenes - Macrolide (MLS) resistant clinical isolate
  MIC/MID 50: 0.50 µg/mL (≈ 1.38 µM)
[2]; Streptococcus sanguis - antibiotic-susceptible clinical isolate
  MIC/MID 50: 0.50 µg/mL (≈ 1.38 µM)
[2]; Streptococcus sanguis - macrolide-resistant clinical isolate
  MIC/MID 50: 1.00 µg/mL (≈ 2.77 µM)
